The nature of series [1]: Rectal (body) temperature in mice. Conditions: for Body temperature (T): Table 2, 390 mg/kg (1.0 mM/kg; 1/2 LD16). The series is classed as in vivo, mice (BALB line). The protocol:
(§1) In all cases trials were carried out on mice of the BALB line of 3-4 month age. […] In the case of water-soluble compounds aqueous solutions of the test compounds were injected intraperitoneally (i.p.), while water-insoluble compounds were introduced orally (p.o.).
(§2) Rectal temperature changes (absolute magnitudes in ° C.) were measured using a medicinal electrothermometer TREM-1 (Table 1). […] The data on oxygen consumption are given an percents relative to the starting content of oxygen taken as 100 (Table 2).

Series [2] in a line: Oxygen consumption in mice (closed testing unit, gas analyzer MN 5130). The series is classed as in vivo, mice (BALB line). Conditions: for Lowering of oxygen consumption: relative to initial value; for Consumption of oxygen (O2): relative to starting content taken as 100, 390 mg/kg (1.0 mM/kg; 1/2 LD16), mice. The procedure:
as §1, §2

Series [3] in a line: Rectal temperature in rats. The series is classed as in vivo.
Series [4] can be described thus: Lethal dose determination (LD16, LD50, LD84) in mice. Conditions: mouse, in vivo, ip.
A short description of the next series: physchem. The series is classed as physicochemical. Conditions: twin-water 1:9. The procedure:
(§3) Compound 1 was dissolved in a twin-water 1:9 (concentration of saturated solution was 40 mg/ml) and introduced intraperitoneally at the rate of 0.2 ml per 20 g of mouse weight.

A short description of series [5]: Observed behavioural effects in mice after introduction. The following applies: intraperitoneally. The series is classed as in vivo, mice (BALB line). The protocol: In all cases trials were carried out on mice of the BALB line of 3-4 month age. Non-toxic doses of compounds under test, varying from 60 to 400 mg/kg, were used in all experiments. In the case of water-soluble compounds aqueous solutions of the test compounds were injected intraperitoneally (i.p.), while water-insoluble compounds were introduced orally (p.o.).
as §3

Structures can show the parent of a compound that is named as a salt.

One may read the LD50 as the dose expected to kill half of the subjects tested. Low values mean greater toxicity, high ones lower toxicity. The solubility is how much of the substance goes into solution per volume. With `CCOC(=O)C(=NOC)C1=NN=C(N2CCOCC2)SC1` [Compound 1, Ethyl-1-methoxyimino-1-(2-morpholino-6H-1,3,4-thiadiazine-5-yl)acetate, hydrobromide], the “Time to maximum temperature drop” value in series [1] lay in the range of 90 to 120 min. Further, the Body temperature was found to be 37.9 °C in series [1] (391.7 mg/kg (1.0 mM/kg) i.p., 0 minutes); 29.6 °C in series [1] (391.7 mg/kg (1.0 mM/kg) i.p., 30 minutes); 26.5 °C in series [1] (391.7 mg/kg (1.0 mM/kg) i.p., 60 minutes); 24.8 °C in series [1] (391.7 mg/kg (1.0 mM/kg) i.p., 90 minutes); 24.6 °C in series [1] (391.7 mg/kg (1.0 mM/kg) i.p., 120 minutes); 32.6 °C in series [1] (391.7 mg/kg (1.0 mM/kg) i.p., 180 minutes). Also, the Body temperature in series [1] (391.7 mg/kg (1.0 mM/kg) i.p., 240 minutes) came to 34.6 °C; in series [1] (391.7 mg/kg (1.0 mM/kg) i.p., 300 minutes) it was 35.9 °C. In addition, the “Fall of rectal temperature” value in series [1] (10 minutes after introduction) is 3-4 °C; in series [1] (after 30 minutes), 7-8 °C; in series [3] (10 minutes after introduction) it was 3-4 °C; in series [3] (after 30 minutes) it was “about 5 °C”. For the same molecule, the “Body temperature (T)” value in series [1] (5 minutes) came out at 33.5 °C; in series [1] (15 minutes), 31.2 °C. Further, the Temperature difference in series [1] (after five hours) was 2 °C. In series [1] (introduced intraperitoneally), the “Drop of body temperature” value is “drop of body temperature”. The Maximum temperature drop in series [1] (reached in 90-120 minutes) was 12-13 °C. For the same molecule, the “Restoration of oxygen consumption” value in series [2] (Table 2, mice) is on record as “Full restoration of oxygen consumption was not observed”. The entries for the “Lowering of oxygen consumption” value in series [2] (at the fourth hour), in series [2] (during the first hour) and in series [2] (for the next 2 hours) were 2 fold, 7-10 fold and 3-4 fold, respectively. Moreover, the “Consumption of oxygen (O2)” value in series [2] (0 minutes) was determined as 100 percents; in series [2] (5 minutes), 8.1 percents; in series [2] (15 minutes), 0.1 percents; in series [2] (30 minutes) it was 0.2 percents; in series [2] (60 minutes), 12.0 percents; in series [2] (90 minutes), 27.0 percents. Also, the “Consumption of oxygen (O2)” value in series [2] (120 minutes) was 26.0 percents; in series [2] (180 minutes) it was 28.0 percents; in series [2] (240 minutes), 59.0 percents. The molecule further gave an LD16 in series [4] of 788.4 mg/kg. The molecule further came in with an LD50 in series [4] of 830 mg/kg. The LD84 in series [4] is recorded as 881.5 mg/kg. In “physchem”, this molecule yielded a solubility of 40 mg/mL. In series [5], the “Effects of introduction” value was “akiriesia, suppression of reflexes to external disturbance, lateral state of mice”.
Take `CCOC(=O)C(=NOC)C1=NN=C(N2CCOCC2)SC1` [Compound 2, Ethyl-1-methoxyimino-1-(2-morpholino-6H-1,3,4-thiadiazine-5-yl)acetate, mesylate]: the Body temperature in series [1] (410.0 mg/kg (1.0 mM/kg) i.p., 0 minutes) was found to be 38.5 °C; in series [1] (410.0 mg/kg (1.0 mM/kg) i.p., 30 minutes) it was 31.9 °C; in series [1] (410.0 mg/kg (1.0 mM/kg) i.p., 60 minutes), 32.8 °C; in series [1] (410.0 mg/kg (1.0 mM/kg) i.p., 90 minutes) it was 35.3 °C; in series [1] (410.0 mg/kg (1.0 mM/kg) i.p., 120 minutes), 36.4 °C; in series [1] (410.0 mg/kg (1.0 mM/kg) i.p., 180 minutes), 37.6 °C. Also, the Body temperature in series [1] (410.0 mg/kg (1.0 mM/kg) i.p., 240 minutes) is 38.8 °C.
Turning to `CCOC(=O)C(=NOC)C1=NN=C(N2CCSCC2)SC1` [Compound 4, Ethyl-1-methoxyimino-1-(2-thiomorpholino-6H-1,3,4-thiadiazine-5-yl)acetate, mesylate], the Body temperature in series [1] (166.0 mg/kg (0.39 mM/kg) i.p., 0 minutes) amounted to 38.1 °C; in series [1] (166.0 mg/kg (0.39 mM/kg) i.p., 30 minutes), 33.9 °C; in series [1] (166.0 mg/kg (0.39 mM/kg) i.p., 60 minutes) it was 34.9 °C; in series [1] (166.0 mg/kg (0.39 mM/kg) i.p., 120 minutes), 35.7 °C; in series [1] (166.0 mg/kg (0.39 mM/kg) i.p., 180 minutes), 37.4 °C.

The values above are taken from patent US6028068A, “Substituted 6H-1,3,4-thiadiazine-2-amines, the use thereof as anaesthetising, cardiovascular and hypometabolic agents, and a pharmaceutical composition containing them” (The Procter & Gamble Company, priority 1999, dated 2000).
